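Cultured in 96-well plates, cells were exposed to test compound for 48 hours across five concentrations. The concentration for full growth arrest is given as TGI.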
Assays:
Test in all cases: NCI tumour cell line growth inhibition, 48 h
HOP-18 NSCLC = system: HOP-18 NSCLC
M19-MEL melanoma = system: M19-MEL melanoma
RXF-631 renal = system: RXF-631 renal
SNB-78 CNS = system: SNB-78 CNS
XF 498 CNS = system: XF 498 CNS
KM20L2 colon = system: KM20L2 colon
DLD-1 colon = system: DLD-1 colon
LXFL 529 NSCLC = system: LXFL 529 NSCLC
DMS 273 small cell lung = system: DMS 273 small cell lung
DMS 114 small cell lung = system: DMS 114 small cell lung
P388 leukemia = system: P388 leukemia
SN12K1 renal = system: SN12K1 renal
P388/ADR leukemia = system: P388/ADR leukemia

Cc1nc2ccccc2nc1NS(=O)(=O)c1ccc(N)cc1
TGI (HOP-18 NSCLC): > 100 µM | TGI (M19-MEL melanoma): > 100 µM | TGI (RXF-631 renal): > 100 µM | TGI (SNB-78 CNS): > 100 µM | TGI (XF 498 CNS): > 100 µM | TGI (KM20L2 colon): > 100 µM | TGI (DLD-1 colon): > 100 µM | TGI (LXFL 529 NSCLC): > 100 µM | TGI (DMS 273 small cell lung): > 100 µM

O=S(=O)(CC1=NC2C=CC=CC2N=C1)NCc1ccccc1 (configuration not stated)
TGI (HOP-18 NSCLC): > 100 µM | TGI (M19-MEL melanoma): > 100 µM | TGI (XF 498 CNS): > 100 µM | TGI (KM20L2 colon): > 100 µM | TGI (DLD-1 colon): > 100 µM | TGI (LXFL 529 NSCLC): > 100 µM | TGI (DMS 273 small cell lung): > 100 µM

O=C1/C(=C/c2cccc([N+](=O)[O-])c2)COc2ccccc21
TGI (HOP-18 NSCLC): 24.8 µM | TGI (M19-MEL melanoma): 5.49 µM | TGI (RXF-631 renal): 31.7 µM | TGI (SNB-78 CNS): > 100 µM | TGI (DMS 114 small cell lung): 8.14 µM | TGI (KM20L2 colon): > 100 µM | TGI (DLD-1 colon): 9.56 µM | TGI (LXFL 529 NSCLC): 7.79 µM

Cc1ccc(S(=O)(=O)N/N=C2\C(=O)C3CC2C(Cl)C3Cl)cc1 (configuration not stated)
TGI (HOP-18 NSCLC): > 100 µM | TGI (RXF-631 renal): > 100 µM | TGI (DMS 114 small cell lung): > 100 µM | TGI (KM20L2 colon): > 100 µM | TGI (DLD-1 colon): > 100 µM | TGI (LXFL 529 NSCLC): > 100 µM | TGI (DMS 273 small cell lung): > 100 µM

COc1ccc2c(c1)c(Cc1c(C)n(C)c3ccc(OC)cc13)c(C)n2C
TGI (HOP-18 NSCLC): > 100 µM | TGI (M19-MEL melanoma): > 100 µM | TGI (SNB-78 CNS): > 100 µM | TGI (XF 498 CNS): > 100 µM | TGI (DMS 114 small cell lung): > 100 µM | TGI (KM20L2 colon): > 100 µM | TGI (DLD-1 colon): > 100 µM | TGI (LXFL 529 NSCLC): > 100 µM | TGI (DMS 273 small cell lung): > 100 µM

CCc1cc(Cc2cc(CC)c(NC(=O)C3=CC(=O)CC(c4ccc(OC)cc4)O3)c(CC)c2Cl)c(Cl)c(CC)c1NC(=O)C1=CC(=O)CC(c2ccc(OC)cc2)O1 (configuration not stated)
TGI (HOP-18 NSCLC): 53.5 µM | TGI (M19-MEL melanoma): 40.2 µM | TGI (RXF-631 renal): > 100 µM | TGI (SNB-78 CNS): 85.1 µM | TGI (DMS 114 small cell lung): 33.5 µM | TGI (KM20L2 colon): 63.4 µM | TGI (DLD-1 colon): 34.8 µM | TGI (LXFL 529 NSCLC): 31.9 µM | TGI (DMS 273 small cell lung): 37.6 µM

c1ccc(C2=NN(c3ccccc3)C3(S2)SC(c2ccccc2)(c2ccccc2)c2ccccc23)cc1 (configuration not stated)
TGI (M19-MEL melanoma): > 100 µM | TGI (SNB-78 CNS): > 100 µM | TGI (XF 498 CNS): > 100 µM | TGI (DMS 114 small cell lung): > 100 µM | TGI (KM20L2 colon): > 100 µM | TGI (DLD-1 colon): > 100 µM | TGI (LXFL 529 NSCLC): > 100 µM | TGI (DMS 273 small cell lung): > 100 µM

CCOc1ccc(NCC(=O)N2CC(=O)Nc3ccccc32)cc1
TGI (HOP-18 NSCLC): > 100 µM | TGI (M19-MEL melanoma): > 100 µM | TGI (SNB-78 CNS): > 100 µM | TGI (XF 498 CNS): > 100 µM | TGI (KM20L2 colon): > 100 µM | TGI (DLD-1 colon): > 100 µM | TGI (LXFL 529 NSCLC): > 100 µM | TGI (DMS 273 small cell lung): > 100 µM

C1=CCN(c2ccccc2)CC1
TGI (HOP-18 NSCLC): > 100 µM | TGI (RXF-631 renal): > 100 µM | TGI (SNB-78 CNS): > 100 µM | TGI (XF 498 CNS): 40.6 µM | TGI (DMS 114 small cell lung): > 100 µM | TGI (KM20L2 colon): > 100 µM | TGI (DLD-1 colon): > 100 µM | TGI (LXFL 529 NSCLC): 43.3 µM | TGI (DMS 273 small cell lung): > 100 µM

Nc1ccc(N=Nc2ccc(/C=C/c3ccc(N=Nc4ccc(N)c5ccc(S(=O)(=O)O)cc45)cc3S(=O)(=O)O)c(S(=O)(=O)O)c2)c2cc(S(=O)(=O)O)ccc12
TGI (P388 leukemia): > 100 µM | TGI (HOP-18 NSCLC): > 100 µM | TGI (M19-MEL melanoma): > 100 µM | TGI (SNB-78 CNS): > 100 µM | TGI (XF 498 CNS): > 100 µM | TGI (SN12K1 renal): > 100 µM | TGI (DMS 114 small cell lung): > 100 µM | TGI (KM20L2 colon): > 100 µM | TGI (DLD-1 colon): > 100 µM | TGI (P388/ADR leukemia): > 100 µM | TGI (DMS 273 small cell lung): > 100 µM

COc1ccc2c(OC)c3ccoc3nc2c1O
TGI (HOP-18 NSCLC): > 100 µM | TGI (M19-MEL melanoma): > 100 µM | TGI (SNB-78 CNS): > 100 µM | TGI (XF 498 CNS): > 100 µM | TGI (DMS 114 small cell lung): > 100 µM | TGI (KM20L2 colon): > 100 µM | TGI (DLD-1 colon): > 100 µM | TGI (LXFL 529 NSCLC): > 100 µM

O=C(CCN(CCO)CCO)Nc1ccc2c(c1)C(=O)c1ccc(NC(=O)CCN(CCO)CCO)cc1C2=O
TGI (HOP-18 NSCLC): > 100 µM | TGI (M19-MEL melanoma): 26.6 µM | TGI (SNB-78 CNS): 54.8 µM | TGI (XF 498 CNS): 25 µM | TGI (DMS 114 small cell lung): 19.6 µM | TGI (KM20L2 colon): > 100 µM | TGI (LXFL 529 NSCLC): 16.2 µM | TGI (DMS 273 small cell lung): 22.1 µM

CCCCOC(=O)/C(CC(=O)C=C(C)C)=N\NS(=O)(=O)c1ccc(C)cc1
TGI (HOP-18 NSCLC): > 100 µM | TGI (M19-MEL melanoma): > 100 µM | TGI (SNB-78 CNS): > 100 µM | TGI (XF 498 CNS): > 100 µM | TGI (DMS 114 small cell lung): > 100 µM | TGI (KM20L2 colon): > 100 µM | TGI (DLD-1 colon): > 100 µM | TGI (LXFL 529 NSCLC): > 100 µM

CC(=O)Nc1ccc(-c2nnc(SCC(=O)Nc3ccccc3Cl)o2)cc1
TGI (HOP-18 NSCLC): > 100 µM | TGI (M19-MEL melanoma): > 100 µM | TGI (SNB-78 CNS): > 100 µM | TGI (DMS 114 small cell lung): > 100 µM | TGI (KM20L2 colon): > 100 µM | TGI (DLD-1 colon): > 100 µM | TGI (LXFL 529 NSCLC): > 100 µM | TGI (DMS 273 small cell lung): > 100 µM

CC[C@@]1(O)C(=O)OCc2c1c(Cl)c1n(c2=O)Cc2cc3ccccc3nc2-1
TGI (HOP-18 NSCLC): > 28.5 µM | TGI (M19-MEL melanoma): > 30.7 µM | TGI (RXF-631 renal): 18.5 µM | TGI (SNB-78 CNS): 84 µM | TGI (XF 498 CNS): 15.8 µM | TGI (DMS 114 small cell lung): 15.9 µM | TGI (KM20L2 colon): > 100 µM | TGI (DLD-1 colon): > 100 µM | TGI (LXFL 529 NSCLC): > 100 µM | TGI (DMS 273 small cell lung): 8.12 µM

CC(=O)OC1[C@H]2c3cc4c(cc3CN3CCC(C[C@@H]1OC(C)=O)C23)OCO4 (some centres not stated)
TGI (M19-MEL melanoma): > 75 µM | TGI (SNB-78 CNS): > 75 µM | TGI (DMS 114 small cell lung): > 75 µM | TGI (KM20L2 colon): > 75 µM | TGI (DLD-1 colon): > 75 µM | TGI (LXFL 529 NSCLC): > 75 µM | TGI (DMS 273 small cell lung): > 75 µM

CCN(CC)CCCCC1CCN(CC(=O)N2c3ccccc3NC(=O)c3ccccc32)CC1
TGI (M19-MEL melanoma): > 100 µM | TGI (RXF-631 renal): > 100 µM | TGI (SNB-78 CNS): > 100 µM | TGI (XF 498 CNS): > 100 µM | TGI (DMS 114 small cell lung): > 100 µM | TGI (DLD-1 colon): > 100 µM | TGI (LXFL 529 NSCLC): > 100 µM | TGI (DMS 273 small cell lung): > 100 µM
